Source: PubChem BioAssay (NCI)
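Compound exposure: 48 hours, 5 concentrations, 96-well plates. GI50 marks 50% less growth. TGI denotes the concentration required for complete inhibition of growth.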

What was measured:
Experiment in all cases: NCI anticancer screen, dose series, 48 h
[1] = test system: SW-620 colon
[2] = test system: EKVX NSCLC
[3] = test system: HS 578T breast
[4] = test system: SF-539 CNS
[5] = test system: UACC-257 melanoma
[6] = test system: PC-3 prostate
[7] = test system: MOLT-4 leukemia
[8] = test system: OVCAR-8 ovarian
[9] = test system: MDA-MB-231 breast
[10] = test system: CCRF-CEM leukemia
[11] = test system: SK-MEL-28 melanoma
[12] = test system: HCT-116 colon
[13] = test system: HL-60(TB) leukemia
[14] = test system: TK-10 renal
[15] = test system: HCT-15 colon
[16] = test system: NCI-H460 lung
[17] = test system: SNB-19 CNS
[18] = test system: K-562 leukemia
[19] = test system: SK-MEL-5 melanoma
[20] = test system: NCI-H522 lung
[21] = test system: SK-MEL-2 melanoma
[22] = test system: HCC-2998 colon
[23] = test system: DU-145 prostate
[24] = test system: COLO 205 colon
[25] = test system: BT-549 breast
[26] = test system: NCI-H23 lung
[27] = test system: MDA-MB-435
[28] = test system: M14 melanoma
[29] = test system: HOP-92 NSCLC
[30] = test system: OVCAR-3 ovarian
[31] = test system: OVCAR-5 ovarian
[32] = test system: RXF 393 renal
[33] = test system: IGROV1 ovarian
[34] = test system: UACC-62 melanoma
[35] = test system: A549 NSCLC
[36] = test system: SK-OV-3 ovarian
[37] = test system: HT29 colon
[38] = test system: A498 renal
[39] = test system: SF-295 CNS
[40] = test system: ACHN renal
[41] = test system: MALME-3M melanoma
[42] = test system: LOX IMVI melanoma
[43] = test system: U251 CNS
[44] = test system: SNB-75 CNS
[45] = test system: UO-31 renal
[46] = test system: SF-268 CNS
[47] = test system: SN12C renal
[48] = test system: NCI/ADR-RES ovarian
[49] = test system: SR leukemia
[50] = test system: KM12 colon
[51] = test system: CAKI-1 renal
[52] = test system: MCF7 breast
[53] = test system: HOP-62 NSCLC
[54] = test system: T-47D breast
[55] = test system: OVCAR-4 ovarian
[56] = test system: RPMI-8226 leukemia
[57] = test system: NCI-H226 lung
[58] = test system: 786-0 renal

Compound: Cc1cccc2c3c(sc12)C(c1ccc(F)cc1)C(C#N)=C(/N=C/c1ccc(Cl)cc1)O3 (stereo unspecified)
- GI50 [1]: 383 nM
- TGI [1]: 13.1 µM
- GI50 [2]: 1720 nM
- TGI [2]: 46.1 µM
- GI50 [3]: 426 nM
- TGI [3]: 10.3 µM
- GI50 [4]: 277 nM
- TGI [4]: 827 nM
- GI50 [5]: 3.81 µM
- TGI [5]: 32.2 µM
- GI50 [6]: 415 nM
- TGI [6]: 13.5 µM
- GI50 [7]: 476 nM
- TGI [7]: 14.2 µM
- GI50 [8]: 487 nM
- TGI [8]: 4.18 µM
- GI50 [9]: 700 nM
- TGI [9]: 14.8 µM
- GI50 [10]: 404 nM
- TGI [10]: > 37.3 µM
- GI50 [11]: 1430 nM
- TGI [11]: 22.6 µM
- GI50 [12]: 384 nM
- TGI [12]: 6.3 µM
- GI50 [13]: 339 nM
- TGI [13]: 971 nM
- GI50 [14]: 20.1 µM
- TGI [14]: 66.2 µM
- GI50 [15]: 366 nM
- TGI [15]: 10.3 µM
- GI50 [16]: 348 nM
- TGI [16]: 3.56 µM
- GI50 [17]: 552 nM
- TGI [17]: 19 µM
- GI50 [18]: 310 nM
- TGI [18]: 14.2 µM
- GI50 [19]: 488 nM
- TGI [19]: 3.29 µM
- GI50 [20]: 91.3 nM
- TGI [20]: 372 nM
- GI50 [21]: 317 nM
- TGI [21]: 17.8 µM
- GI50 [22]: 414 nM
- TGI [22]: 2470 nM
- GI50 [23]: 485 nM
- TGI [23]: 19.3 µM
- GI50 [24]: 648 nM
- TGI [24]: 2510 nM
- GI50 [25]: 907 nM
- TGI [25]: 3.56 µM
- GI50 [26]: 536 nM
- TGI [26]: 16.4 µM
- GI50 [27]: 175 nM
- TGI [27]: 373 nM
- GI50 [28]: 310 nM
- TGI [28]: 8.38 µM
- GI50 [29]: 2190 nM
- TGI [29]: 15.8 µM
- GI50 [30]: 395 nM
- TGI [30]: 5.39 µM
- GI50 [31]: 516 nM
- TGI [31]: 15.4 µM
- GI50 [32]: 222 nM
- TGI [32]: 664 nM
- GI50 [33]: 632 nM
- TGI [33]: 19.2 µM
- GI50 [34]: 354 nM
- TGI [34]: 13.4 µM
- GI50 [35]: 670 nM
- TGI [35]: > 100 µM
- GI50 [36]: 521 nM
- TGI [36]: 41.9 µM
- GI50 [37]: 532 nM
- TGI [37]: 5.04 µM
- GI50 [38]: 10.6 µM
- TGI [38]: 42 µM
- GI50 [39]: 339 nM
- TGI [39]: 11.6 µM
- GI50 [40]: 695 nM
- TGI [40]: 15.5 µM
- GI50 [41]: 720 nM
- TGI [41]: 23.2 µM
- GI50 [42]: 555 nM
- TGI [42]: 6.3 µM
- GI50 [43]: 423 nM
- TGI [43]: 8.76 µM
- GI50 [44]: 275 nM
- TGI [44]: 3.63 µM
- GI50 [45]: 572 nM
- TGI [45]: 15.3 µM
- GI50 [46]: 1830 nM
- TGI [46]: 16.2 µM
- GI50 [47]: 597 nM
- TGI [47]: 12.2 µM
- GI50 [48]: 302 nM
- TGI [48]: 3.49 µM
- GI50 [49]: 317 nM
- TGI [49]: 13.2 µM
- GI50 [50]: 417 nM
- TGI [50]: 13.2 µM
- GI50 [51]: 389 nM
- TGI [51]: 15.2 µM
- GI50 [52]: 322 nM
- TGI [52]: 14 µM
- GI50 [53]: 552 nM
- TGI [53]: 15.1 µM
- GI50 [54]: 583 nM
- TGI [54]: 53 µM
- GI50 [55]: 2270 nM
- TGI [55]: 20.1 µM
- GI50 [56]: 421 nM
- TGI [56]: 7.69 µM
- GI50 [57]: 434 nM
- TGI [57]: 2960 nM
- GI50 [58]: 601 nM
- TGI [58]: 12.5 µM
